Measurements taken from patent publication US20250073194A1, “RXR AGONISTS IN EYE DISORDERS” (Baylor College of Medicine, priority 2022, published 2025).
Entries after “also recorded” stand apart in the source; their conditions may differ.

Assays:
γδ T cells [1] = assay: IL-17A/F in supernatants of stimulated cultured γδ T cells (ELISA); type: cell-based, mouse; settings: for suppressive effect on supernatant IL-17 concentration: bead+IL-23 stimulated, 100 nM 9-cis RA, 96 hours; for effect on IL-17A/F cytokine concentration in supernatants: C57BL/6 spleen γδ T cells, anti-CD3/CD28 beads plus recombinant IL-23, 10 and 100 nM (FIG. 12)
Description: (§1) Pooled γ/δ T17 cells from the spleens of 8-10 week old B6 and Pinkie mice were isolated using the TCR γ/δ T cells Isolation Kit according to the manufacturer's instruction (Miltenyi Biotec, Bergisch Gladbach, Germany). To determine the effect of 9CisRA and monocytes conditional media on IL17 cytokine production, the purified γδ T17 cells were stimulated with anti-CD3/CD28 Dynabeads (Catalog #11452D, Life Technologies AS, Norway) alone or in combination with IL-23 (10 ng/ml, eBioscience), 9-cisRA (100 nM) or monocyte conditioned media for 96 hours for cytokine measurement.
(§2) Mouse IL17 was measured from cell cultured supernatant after 96 hours incubation using a mouse IL-17 DuoSet Enzyme-linked immunosorbent assay (ELISA) (R&D systems, Minneapolis, USA)

monocytes [2] = assay: Stimulatory activity of conditioned media from LPS-treated monocytes on IL-17 production by γδ T cells; type: cell-based, mouse; settings: LPS-stimulated cultured monocytes treated with 100 nM 9-cisRA
Description: (§3) Monocytes were purified from 3 days cultured mouse bone marrow cells using the monocytes isolation kit, according to the manufacturer's instruction (BM, Miltenyi Biotec, Bergisch Gladbach, Germany). 5×10^5 monocytes plated in a 48 well plate were preincubated with 100 nM 9-cisRA for 1 hour followed by stimulation with 0.5 μg/ml LPS for 4 hours for RNA or overnight for cytokines. The total RNA was extracted using an RNeasy® Plus Mimi Kit (Cat No. 74134, QIAGEN GmbH, Hilden, Germany) according to manufacturer's instruction. The RNA and collected supernatants were stored at −80° C. until further use.
as §1, §2

monocytes [3] = assay: Nanostring myeloid innate immunity array of LPS-stimulated cultured monocytes; type: cell-based, mouse; settings: 100 nM 9-cis RA added to culture media
Description: as §3
This was performed by the Genomic and RNA Profiling Core at Baylor College of Medicine using the NanoString Technologies nCounter Gene Expression Mouse Myeloid Innate Immunity V2 Panel codeset (NS_MM_Myeloid_V2.0) containing 770 unique pairs of 35-50 bp reporter probes and biotin-labeled capture probes, including internal reference controls (NanoString, Seattle, WA) as previously described. (Alam et al., 2021a). Data was analyzed by ROSALIND® (https://rosalind.bio/), with a HyperScale architecture developed by ROSALIND, Inc. (San Diego, CA).

monocytes [4] = settings: 9-cis RA treated monocytes; cited from earlier work
γδ T cells [5] = settings: stimulated with anti-CD28 antibody and cytokine cocktail of IL-23 and IL-1; cited from earlier work

Question: For CC1=C(/C=C/C(C)=C\C=C\C(C)=C\C(=O)O)C(C)(C)CCC1 [9-cis RA, 9-cis retinoic acid], which “suppressive effect on supernatant IL-17 concentration” value (γδ T cells [1]; B6 γδ T cells) is on record?
Answer: 74%

Question: And the “effect on IL-17A/F cytokine concentration in supernatants” value (from here on “effect … in supernatants”) (γδ T cells [1])?
Answer: suppressive effects

Question: And the “suppressive effect on supernatant IL-17 concentration” value (γδ T cells [1]; Pinkie γδ T cells)?
Answer: 46%

Question: And the “suppression of IL-17 production” value (γδ T cells [1]; cultured γδ T cells stimulated by CD28 beads or beads plus IL-23)?
Answer: > 70%

Question: And the “supernatant IL-17 concentration” value (γδ T cells [1]; stimulated γδ T cells from both strains (B6 and Pinkie), 100 nM)?
Answer: suppresses; also recorded: significantly reduced

Question: And the “stimulatory activity of monocyte conditioned media on γδ T cell IL-17 production” value (monocytes [2])?
Answer: suppresses; also recorded: significantly reduced

Question: And the “stimulatory activity of monocyte conditioned media on γδ T cell IL-17 production” value (monocytes [2]; listed as 9-cisRA)?
Answer: significantly reduced

Question: What about the “expression of γδT17 inducing cytokines (Il23a, Il12b, Il1α, Il1β, Tnf-α)” value (monocytes [3]) of the same compound?
Answer: suppressed; also recorded: reduced

Question: And the “expression of γδT17 inducing cytokines (Il23a, Il12b, Il1α, Il1β, Tnf-α)” value (monocytes [3]; listed as 9-cisRA)?
Answer: suppresses

Question: And the “levels of IL-1β and IL-23β in supernatants” value (monocytes [4])?
Answer: reduced levels

Question: Which “IL-17 production by γδ T cells” value (γδ T cells [5]) does the source give for CC1(C)CCC(C)(C)c2cc(NC(=O)c3ccc(C(=O)O)cc3)ccc21 [AM80] here?
Answer: suppress

Question: With C=C(c1ccc(C(=O)O)cc1)c1cc2c(cc1C)C(C)(C)CCC2(C)C [Bexarotene] as the compound, how does the “effect … in supernatants” value (γδ T cells [1]) read?
Answer: suppressive effects

Question: With CC/C=C\C/C=C\C/C=C\C/C=C\C/C=C\C/C=C\CCC(=O)O [DHA, omega-3 docosahexaenoic acid] as the compound, how does the “effect … in supernatants” value (γδ T cells [1]) read?
Answer: suppressive effects

Question: For CN1c2ccc([N+](=O)[O-])cc2N=C(c2ccc(C(=O)O)cc2)c2cc3c(cc21)C(C)(C)CCC3(C)C [HX531], which “effect on suppressive activity of the RAR agonist ATRA on IL-17A/F” value (γδ T cells [1]; C57BL/6 γδ T cells, anti-CD3/CD28 beads plus IL-23 (FIG. 12)) is on record?
Answer: did not have any effect

Question: And the “effect on the suppressive effects of RXRα agonists on IL-17A/F” value (γδ T cells [1]; C57BL/6 γδ T cells, anti-CD3/CD28 beads plus IL-23, with 9-cisRA, Bexarotene, DHA, oleic acid, honokiol (FIG. 12))?
Answer: blocked

Question: For CC1=C(/C=C/C(C)=C/C=C/C(C)=C/C(=O)O)C(C)(C)CCC1 [all trans retinoic acid], which “effect … in supernatants” value (γδ T cells [1]) is on record?
Answer: suppressive activity

Question: For C=CCc1ccc(O)c(-c2ccc(O)c(CC=C)c2)c1 [honokiol], which “effect … in supernatants” value (γδ T cells [1]) is on record?
Answer: suppressive effects

Question: With CCCCCCCC/C=C\CCCCCCCC(=O)O [oleic acid] as the compound, how does the “effect … in supernatants” value (γδ T cells [1]) read?
Answer: suppressive effects
